For one series, the target named is T1, CFTR (Homo sapiens, UniProt P13569, DEL508-508).
T1 construct: endogenous in cells; host or cells: primary human bronchial epithelial cells, F508del/MF genotype
In words: HBE2 Assay: Ussing chamber assay of CFTR-mediated short-circuit currents in F508del/MF-HBE cells with 44 nM (6R,12R)-17-amino-12-methyl-6,15-bis(trifluoromethyl)-13,19-dioxa-3,4,18-triazatricyclo[12.3.1.12,5]nonadeca-1(18),2,4,14,16-pentaen-6-ol. The note with it: 3 μM with 44 nM (6R,12R)-17-amino-12-methyl-6,15-bis(trifluoromethyl)-13,19-dioxa-3,4,18-triazatricyclo[12.3.1.12,5]nonadeca-1(18),2,4,14,16-pentaen-6-ol, 18-24 hours, 20% human serum. Type of series: cell-based. As to the method:
Ussing chamber experiments were performed using human bronchial epithelial (HBE) cells derived from CF subjects heterozygous for F508del and a minimal function CFTR mutation (F508del/MF-HBE) and cultured as previously described (Neuberger T, Burton B, Clark H, Van Goor F Methods Mol Biol 2011:741:39-54). After four days the apical media was removed, and the cells were grown at an air liquid interface for >14 days prior to use.
To isolate the CFTR-mediated short-circuit (ISC) current, F508del/MF-HBE grown on Costar® Snapwell™ cell culture inserts were mounted in an Ussing chamber and the transepithelial ISC was measured under voltage-clamp recording conditions (Vhold=0 mV) at 37° C. The basolateral solution contained (in mM) 145 NaCl, 0.83 K2HPO4, 3.3 KH2PO4, 1.2 MgCl2, 1.2 CaCl2), 10 Glucose, 10 HEPES (pH adjusted to 7.4 with NaOH) and the apical solution contained (in mM) 145 NaGluconate, 1.2 MgCl2, 1.2 CaCl2), 10 glucose, 10 HEPES (pH adjusted to 7.4 with NaOH) and 30 μM amiloride to block the epithelial sodium channel. Forskolin (20 μM) was added to the apical surface to activate CFTR, followed by apical addition of a CFTR inhibitor cocktail consisting of BPO, GlyH-101, and CFTR inhibitor 172 (each at 20 μM final assay concentration) to specifically isolate CFTR currents. The CFTR-mediated ISC (μA/cm^2) for each condition was determined from the peak forskolin response to the steady-state current following inhibition.
The activity of the CFTR corrector compounds on the CFTR-mediated ISC was determined in Ussing chamber studies as described above. The F508del/MF-HBE cell cultures were either incubated with the corrector compounds at a range of concentrations in combination with 44 nM (6R,12R)-17-amino-12-methyl-6,15-bis(trifluoromethyl)-13,19-dioxa-3,4,18-triazatricyclo[12.3.1.12,5]nonadeca-1(18),2,4,14,16-pentaen-6-ol or were incubated with the corrector compounds at a single fixed concentration of 1 and 3 μM in combination with 44 nM (6R,12R)-17-amino-12-methyl-6,15-bis(trifluoromethyl)-13,19-dioxa-3,4,18-triazatricyclo[12.3.1.12,5]nonadeca-1(18),2,4,14,16-pentaen-6-ol for 18-24 hours at 37° C. and in the presence of 20% human serum. The concentration of corrector compounds with 44 nM (6R,12R)-17-amino-12-methyl-6,15-bis(trifluoromethyl)-13,19-dioxa-3,4,18-triazatricyclo[12.3.1.12,5]nonadeca-1(18),2,4,14,16-pentaen-6-ol during the 18-24 hours incubations was kept constant throughout the Ussing chamber measurement of the CFTR-mediated ISC to ensure compounds were present throughout the entire experiment.

Molecules are shown by their SMILES. Read-outs that look alike come from different tables or passages of the source.

T1 sequence (P13569 with tags, fused parts or gaps DEL508-508): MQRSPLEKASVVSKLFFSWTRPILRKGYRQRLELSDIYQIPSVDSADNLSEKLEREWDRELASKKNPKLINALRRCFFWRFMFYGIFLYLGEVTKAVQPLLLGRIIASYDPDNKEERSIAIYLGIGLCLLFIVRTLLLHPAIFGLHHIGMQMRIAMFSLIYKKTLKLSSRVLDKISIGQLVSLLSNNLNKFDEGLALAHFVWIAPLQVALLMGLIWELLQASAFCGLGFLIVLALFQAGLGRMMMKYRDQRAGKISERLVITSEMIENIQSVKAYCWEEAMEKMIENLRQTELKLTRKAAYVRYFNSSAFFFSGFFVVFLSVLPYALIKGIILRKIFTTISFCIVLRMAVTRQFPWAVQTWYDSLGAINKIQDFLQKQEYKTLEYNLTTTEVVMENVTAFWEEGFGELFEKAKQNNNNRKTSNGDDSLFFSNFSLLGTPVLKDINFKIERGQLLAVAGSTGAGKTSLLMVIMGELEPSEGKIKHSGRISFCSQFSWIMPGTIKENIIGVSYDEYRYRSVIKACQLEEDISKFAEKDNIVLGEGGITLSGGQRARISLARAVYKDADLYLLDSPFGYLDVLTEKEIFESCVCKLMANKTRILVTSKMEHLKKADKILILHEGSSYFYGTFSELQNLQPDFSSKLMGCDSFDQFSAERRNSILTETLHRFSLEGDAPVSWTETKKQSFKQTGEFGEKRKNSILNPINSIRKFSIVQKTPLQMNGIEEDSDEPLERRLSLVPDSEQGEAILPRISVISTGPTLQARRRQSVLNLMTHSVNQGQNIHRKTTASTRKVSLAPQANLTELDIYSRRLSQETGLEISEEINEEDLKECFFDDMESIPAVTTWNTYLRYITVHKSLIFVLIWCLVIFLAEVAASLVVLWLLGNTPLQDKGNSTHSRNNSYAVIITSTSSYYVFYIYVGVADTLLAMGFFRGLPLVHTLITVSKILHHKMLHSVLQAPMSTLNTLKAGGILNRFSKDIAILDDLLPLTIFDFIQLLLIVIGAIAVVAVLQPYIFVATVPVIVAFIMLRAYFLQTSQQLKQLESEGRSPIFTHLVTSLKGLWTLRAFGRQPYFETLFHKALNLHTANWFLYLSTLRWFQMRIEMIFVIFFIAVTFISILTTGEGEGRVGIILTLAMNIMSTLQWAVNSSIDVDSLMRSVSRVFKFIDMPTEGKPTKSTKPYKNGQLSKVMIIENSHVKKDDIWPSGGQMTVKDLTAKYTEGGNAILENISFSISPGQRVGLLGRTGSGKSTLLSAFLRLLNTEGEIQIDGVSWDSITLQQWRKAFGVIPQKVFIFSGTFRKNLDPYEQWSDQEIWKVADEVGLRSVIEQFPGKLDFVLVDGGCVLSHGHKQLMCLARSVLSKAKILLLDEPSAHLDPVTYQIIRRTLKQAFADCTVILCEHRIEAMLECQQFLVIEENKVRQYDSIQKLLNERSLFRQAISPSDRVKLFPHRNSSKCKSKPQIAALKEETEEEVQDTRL

Regarding `Cc1cccc(C)c1-c1nc2nc(c1F)OC[C@@H](CCC(C)(C)C)N(Cc1cncc(N(C)C3CCC3)n1)C(=O)c1cccc(c1)S(=O)(=O)N2` [Compound 365], the “HBE2 Activity at 3 μM (%)” value at CFTR is recorded as “+++ (+++ is >60%)”.

Consider `Cc1cccc(C)c1-c1nc2nc(c1C)OC[C@@H](CC(C)(C)C)N(c1cnn(C)c1CC(C)C)C(=O)c1cccc(c1)S(=O)(=O)N2` [Compound 364, (11R)-6-(2,6-Dimethylphenyl)-11-(2,2-dimethylpropyl)-12-(5-isobutyl-1-methyl-pyrazol-4-yl)-7-methyl-2,2-dioxo-9-oxa-2λ^6-thia-3,5,12,19-tetrazatricyclo[12.3.1.14,8]nonadeca-1(18),4(19),5,7,14,16-hexaen-13-one], for which, on CFTR, the “HBE2 Activity at 3 μM (%)” value is listed as “+++ (+++ is >60%)”.

Where the note is “from CC(C)(C)c1c(Cl)nc(NS(=O)(=O)c2cccc(C(=O)N3Cc4ccccc4C(O)C3)c2)nc1Cl, snar bond, 13-membered ring, NaH, NMP, 8.0 mM, 70.0 °C, 2.0 h”, `CC(C)(C)c1c(Cl)nc2nc1OC1CN(Cc3ccccc31)C(=O)c1cccc(c1)S(=O)(=O)N2` (centres unmarked) came in with a ring closure, isolated yield of 39%.

With `Cc1cccc(C)c1-c1nc2nc(c1Br)O[C@H](C)CNC(=O)c1cccc(c1)S(=O)(=O)N2`, where the note is “from Cc1cccc(C)c1-c1nc(NS(=O)(=O)c2cccc(C(=O)O)c2)nc(O[C@H](C)CN)c1Br, amide bond, 13-membered ring, HATU/HOBt/DIEA, DMF, 31.1 mM, 0.42 h”, the ring closure, isolated yield stood at 54%.

`Cc1cccc(CCC(C)C)c1-c1nc2nc(c1C)OC[C@@H](CC(C)(C)C)N(Cc1ncc(OC(C)C)cn1)C(=O)c1cccc(c1)S(=O)(=O)N2` (atropisomer, axis not shown; (P)) [Compound 334, (5P,11R)-11-(2,2-Dimethylpropyl)-7-methyl-6-[2-methyl-6-(3-methylbutyl)phenyl]-12-{[5-(propan-2-yloxy)pyrimidin-2-yl]methyl}-9-oxa-2λ^6-thia-3,5,12,19-tetraazatricyclo[12.3.1.14,8]nonadeca-1(17),4(19),5,7,14(18),15-hexaene-2,2,13-trione]: the “HBE2 Activity at 3 μM (%)” value at CFTR was “+++ (+++ is >60%)”.

With `Cc1cccc(C)c1-c1nc2nc(c1C)OC[C@@H](CC(C)C)N(Cc1cncc(N(C)C3CCC3)n1)C(=O)c1cccc(c1)S(=O)(=O)N2` [Compound 358], the “HBE2 Activity at 3 μM (%)” value at CFTR is reported as “+++ (+++ is >60%)”.

On to `Cc1cccc(C)c1-c1nc2nc(c1F)OC[C@@H](CCC(C)(C)C)N(Cc1cnc3cc(C(C)C)n(C)c3n1)C(=O)c1cccc(c1)S(=O)(=O)N2` [Compound 368], for which, on CFTR, the “HBE2 Activity at 3 μM (%)” value is listed as “+++ (+++ is >60%)”.

`Cc1cccc(C)c1-c1nc2nc(c1F)OC[C@@H](CCC(C)(C)C)N(Cc1ncc(OC(C)C)cn1)C(=O)c1cccc(c1)S(=O)(=O)N2` [Compound 369]: the “HBE2 Activity at 3 μM (%)” value on CFTR was “+++ (+++ is >60%)”.

Consider `Cc1cccc(C)c1-c1nc2cc(c1C(F)(F)F)OC[C@@H](CC(C)(C)C)N(Cc1cncc(N(C)C3CCC3)n1)C(=O)c1cccc(c1)S(=O)(=O)N2` [Compound 363, (11R)-12-[[6-[Cyclobutyl(methyl)amino]pyrazin-2-yl]methyl]-6-(2,6-dimethylphenyl)-11-(2,2-dimethylpropyl)-2,2-dioxo-7-(trifluoromethyl)-9-oxa-2λ^6-thia-3,5,12-triazatricyclo[12.3.1.14,8]nonadeca-1(18),4(19),5,7,14,16-hexaen-13-one], for which, at CFTR, the “HBE2 Activity at 3 μM (%)” value is “+++ (+++ is >60%)”.

As for `C[C@@H]1CC=CCC[C@](OCc2ccccc2)(C(F)(F)F)C2=NN=C(O2)c2nc(c(C(F)(F)F)cc2N(C(=O)OC(C)(C)C)C(=O)OC(C)(C)C)O1` (mixture of isomers), for the setting “from C=CCC[C@@](OCc1ccccc1)(c1nnc(-c2nc(O[C@H](C)CC=C)c(C(F)(F)F)cc2N(C(=O)OC(C)(C)C)C(=O)OC(C)(C)C)o1)C(F)(F)F, rcm bond, 14-membered ring, Grubbs 1st generation, DCE, 8.92 mM, 75.0 °C, 5.25 h”, the ring closure, isolated yield was 53%.

Compound `Cc1cccc(C)c1-c1nc2nc(c1C)OC[C@@H](CC(C)C)N(C1CC3(CC(NC(=O)OC(C)(C)C)C3)C1)C(=O)c1cccc(c1)S(=O)(=O)N2` (some centres unmarked) came in with a ring closure, isolated yield (from Cc1cccc(C)c1-c1nc(NS(=O)(=O)c2cccc(C(=O)O)c2)nc(OC[C@@H](CC(C)C)NC2CC3(CC(NC(=O)OC(C)(C)C)C3)C2)c1C, amide bond, 13-membered ring, HATU/DIEA, DMF, 14.1 mM, 3.0 h, 2 steps) of 45%.

In turn, `Cc1cccc(C)c1-c1nc2nc(c1C)OC[C@@H](CC(C)C)N(C1CC3(CCN(C(=O)OC(C)(C)C)CC3)C1)C(=O)c1cccc(c1)S(=O)(=O)N2` yielded a ring closure, isolated yield (from Cc1cccc(C)c1-c1nc(NS(=O)(=O)c2cccc(C(=O)O)c2)nc(OC[C@@H](CC(C)C)NC2CC3(CCN(C(=O)OC(C)(C)C)CC3)C2)c1C, amide bond, 13-membered ring, HATU/DIEA, DMF, 9.1 mM, 3.0 h, 2 steps) of 46%.

Consider `CCc1c(Cl)nc2nc1Oc1cccc(c1)C(=O)Nc1cccc(c1)S(=O)(=O)N2`, for which the ring closure, isolated yield runs as follows: (from CCc1c(Cl)nc(NS(=O)(=O)c2cccc(N)c2)nc1Oc1cccc(C(=O)O)c1, amide bond, 14-membered ring, HATU/DIEA, DMF, 53.0 mM, 0.33 h, 2 steps) 19%; (from CCc1c(Cl)nc(NS(=O)(=O)c2cccc(N)c2)nc1Oc1cccc(C(=O)O)c1, amide bond, 14-membered ring, HATU/DIEA, DMF, 50.0 °C, 2.5 h, 4 steps) 8%.

Consider `Cc1cccc(C)c1-c1nc2nc(c1Br)OC[C@@H](CC(C)C)N(C1CC3(CC3)C1)C(=O)c1cccc(c1)S(=O)(=O)N2`, for which the ring closure, isolated yield (from Cc1cccc(C)c1-c1nc(NS(=O)(=O)c2cccc(C(=O)O)c2)nc(OC[C@@H](CC(C)C)NC2CC3(CC3)C2)c1Br, amide bond, 13-membered ring, HATU/DIEA, NMP, 105.0 mM, 24.0 h) turned out to be 53%.

As to `Cc1cccc(CCC(C)C)c1-c1nc2nc(c1C)OC[C@@H](CC(C)(C)C)N(Cc1ncc(OC(C)C)cn1)C(=O)c1cccc(c1)S(=O)(=O)N2` (atropisomer, axis not shown; (M)) [Compound 333, (5M,11R)-11-(2,2-Dimethylpropyl)-7-methyl-6-[2-methyl-6-(3-methylbutyl)phenyl]-12-{[5-(propan-2-yloxy)pyrimidin-2-yl]methyl}-9-oxa-2λ^6-thia-3,5,12,19-tetraazatricyclo[12.3.1.14,8]nonadeca-1(17),4(19),5,7,14(18),15-hexaene-2,2,13-trione], the “HBE2 Activity at 3 μM (%)” value at CFTR is reported as “+++ (+++ is >60%)”.

Take `Cc1cccc(OC(C)C)c1-c1nc2nc(c1C)OC[C@@H](CC(C)(C)C)N(Cc1ncc(N3CCC(C)(C)C3)cn1)C(=O)c1cccc(c1)S(=O)(=O)N2` (atropisomer, axis not shown) [Compound 356]: the “HBE2 Activity at 3 μM (%)” value at CFTR is “+++ (+++ is >60%)”.

As to `CC(C)=Cc1c(N2C(=O)c3cccc(c3)S(=O)(=O)Nc3nc(c(C)c(-c4c(C)cccc4C)n3)OC[C@H]2CC(C)(C)C)cnn1C` [Compound 361, (11R)-6-(2,6-Dimethylphenyl)-11-(2,2-dimethylpropyl)-7-methyl-12-[1-methyl-5-(2-methylprop-1-enyl)pyrazol-4-yl]-2,2-dioxo-9-oxa-2λ^6-thia-3,5,12,19-tetrazatricyclo[12.3.1.14,8]nonadeca-1(18),4(19),5,7,14,16-hexaen-13-one], on CFTR, the “HBE2 Activity at 3 μM (%)” value is recorded as “+++ (+++ is >60%)”.

For the compound `Cc1cccc(CC(C)C)c1-c1nc2nc(c1C)OC[C@@H](CC(C)(C)C)N(Cc1cncc(N(C)C3CCC3)n1)C(=O)c1cccc(c1)S(=O)(=O)N2` (atropisomer, axis not shown) [Compound 357], at CFTR, the “HBE2 Activity at 3 μM (%)” value is “+++ (+++ is >60%)”.

For the setting “from CCc1c(Cl)nc(NS(=O)(=O)c2cccc(N)c2)nc1Oc1ccc(Cl)c(C(=O)O)c1, amide bond, 14-membered ring, HATU/DIEA, DMF, 0.42 h, 3 steps”, `CCc1c(Cl)nc2nc1Oc1ccc(Cl)c(c1)C(=O)Nc1cccc(c1)S(=O)(=O)N2` returned a ring closure, isolated yield of 7%.

`Cc1cccc(C)c1-c1nc2nc(c1F)OC[C@@H](CCC(C)(C)C)N(Cc1cncc(N3CCC[C@H]3C)n1)C(=O)c1cccc(c1)S(=O)(=O)N2` [Compound 366]: the “HBE2 Activity at 3 μM (%)” value at CFTR is “+++ (+++ is >60%)”.

As to `Cc1cccc(CC2CCCCC2)c1-c1nc2nc(c1C)OC[C@@H](CC(C)(C)C)N(Cc1cncc(N(C)C3CCC3)n1)C(=O)c1cccc(c1)S(=O)(=O)N2` [Compound 360], the “HBE2 Activity at 3 μM (%)” value on CFTR is given as “+++ (+++ is >60%)”.

Consider `Cc1cccc(C)c1-c1nc2nc(c1C)OC[C@@H](CC(C)(C)C)N(Cc1cncc(N(C)C3CCC3)n1)C(=O)c1cccc(c1)S(=O)(=O)N2` [Compound 359], for which the “HBE2 Activity at 3 μM (%)” value at CFTR was “+++ (+++ is >60%)”.

The record behind these values is US20230374038A1, “MODULATORS OF CYSTIC FIBROSIS TRANSMEMBRANE CONDUCTANCE REGULATOR” (VERTEX PHARMACEUTICALS INCORPORATED, priority 2020, published 2023).
